Data set [1] has as its system type II collagen-induced arthritis. Description: Rat type II collagen-induced arthritis model evaluation test. Format: in vivo, LEW/CrlCrlj rats. Conditions: oral 6 mg/mL solution at 5 mL/kg once a day from Day 12, hind limb volume on Day 21, rats. As for the experimental part:
In order to evaluate the inhibitory action for autoimmune and inflammatory diseases of the present compounds, the evaluation of Rat type II collagen-induced arthritis model was carried out. The specific method is described below.
0.05 mol/L acetic acid was added to bovine type II collagen (Collagen Research Center, Cat No. K42) so that it became 2 mg/mL on the day before primary sensitization and secondary sensitization, and the mixture was allowed to stand overnight in a refrigerator to dissolve the material. Immediately before sensitization, it was mixed with an equal amount of Freund's incomplete adjuvant (available from Difco, Cat No. 263910) to prepare an emulsion for sensitization.
An appropriate amount of each compound was weighed, triturated with an agate mortar, and suspended or dissolved in 1% methyl cellulose solution to prepare 6 mg/mL solution.
LEW/CrlCrlj rats (female, purchased from Charles River Laboratories Japan, Inc.) were weighted on the day of primary sensitization (Day 0) and primary grouped to an arthritis non-induced group and an arthritis induced group based on the measured body weight using a random number. The rats (other than the arthritis non-induced group) were thereafter administrated the emulsion for sensitization ([…]) into the skin of the dorsum (divided into 5 portions) under general anesthesia with isoflurane inhalation (available from Mylan Seiyaku Ltd.). Seven days after the primary sensitization (Day 7), the rats (other than the arthritis non-induced group) were manually held in hands and administered the emulsion for sensitization (100 μL) into the skin of the tail. On Day 12, the rats developing arthritis were selected, a random number was used to avoid difference in an average hind limb volume between the groups, and the arthritis induced group was secondary grouped to a control group and each compound-administered group, wherein each group contained 8 samples. The rats were forced orally administered 1% methyl cellulose solution (arthritis non-induced group and control group) or each administration solution comprising the compound (each compound-administered group) at a dose of 5 mL/kg into stomach using a feeding needle once a day from Day 12. The volume of both hind limbs of each rat was measured using a plethysmometer (from Unicom) on Day 0, 4, 7, 12, 14, 18 and 21.
(Calculation of Limb Edema Suppression Rate) The limb edema suppression rate (%) was calculated by the following equation using Microsoft EXCEL 2010. Limb edema suppression rate (%)=100−{(average value of hind limb volume of each compound-administered group on Day 21)−(average value of hind limb volume of arthritis non-induced group on Day 21))/(average value of hind limb volume of control group on Day 21)−(average value of hind limb volume of arthritis non-induced group on Day 21)}×100

Data set [2] in a line: Pharmacokinetics test in rats (oral administration). Format: in vivo, LEW/CrlCrlj rats. How it is done: In order to evaluate the transition of plasma concentration of the present compound after oral administration, pharmacokinetics was evaluated in rats. The specific method is described below.
Appropriate amounts of Example 71 and various salts thereof were weighed, triturated with an agate mortar, and suspended or dissolved in 1% methyl cellulose solution to 2 mg/mL (as a converted quantity of Example 71 considering the correction of purify).
LEW/CrlCrlj rats (male, purchased form Charles River Laboratories Japan, Inc.) were weighted, a random number based on the measured body weight was used to avoid difference in average body weight among groups, and the rats were divided into groups, wherein each groups contained 4 rats. The rats were manually held in hands and forced orally administered each administration solution comprising the compound at a dose of 5 mL/kg into stomach using a feeding needle. At 0.5, 1, 3, 6 and 24 hours after the administration of each administration solution comprising the compound, the rats were manually held in hands, and blood was collected from the jugular vein or subclavian vein using a heparin-treated injection syringe. The obtained blood was centrifuged at 1,500 G for 10 minutes, and plasma was collected as an actual sample. In addition, plasma was collected from rats before the administration of the compound in the same manner, which was used as blank plasma. The collected actual samples and blank plasma were stored in a freezer set at −70° C. until the measurement of the compound concentration. To 20 μL of each actual sample were added 20 μL of acetonitrile (available from Kishida Chemical Co., Ltd., Cat No. 140-00401), 100 μL of MilliQ water and 20 μL of the internal standard solution to prepare an analytical sample. In addition, to 20 μL of blank plasma were added 20 μL or 40 μL of acetonitrile (available from Kishida Chemical Co., Ltd., Cat No. 140-00401) and 100 μL of MilliQ water (a blank sample or a zero sample, respectively). A standard sample for a calibration curve was prepared by mixing 20 μL of blank plasma, 20 μL of the standard solution for a calibration curve in each concentration, 100 μL of MilliQ water and 20 μL of the internal standard solution. Whole amount of the prepared each sample was applied to a diatomaceous earth column for liquid-liquid extraction (available from Biotage, Cat No. 820-0200), tert-butyl methyl ether (available from Kanto Chemical Co., Inc., Cat No. 04418-5B) was added and eluted by natural dropping, and the obtained eluate was concentrated to dryness under a nitrogen stream. The residue was dissolved in the re-dissolved solution and 10 μL of each sample was injected into the LC/MS/MS apparatus.
LC/MS/MS analysis was carried out under the following conditions. Analytical column: Hydrosphere C18, 3 μm, 2.0 mm I.D.×50 mm (from YMC, Cat No. HS12S03-0502WT)
Flow rate: 0.3 mL/min. Column temperature: 50° C. Peak area calculation, peak area ratio calculation, preparation of calibration and quantification used in calculating the concentration for the LC/MS/MS analysis were carried out by Analyst ver.1.6.2 (available from AB Sciex). In addition, by using the obtained concentration measurement results, these were analyzed by Non-compartmental model of a pharmacokinetics analysis program WinNonlin ver.6.1 (Pharsight Corporation), and the pharmacokinetics parameter was calculated.

[3] abbreviates: male, LEW/CrlCrlj, rat, plasma, 10 mg/kg, oral 2 mg/mL solution at 5 mL/kg, mean n = 4.

The source of these data is US11186588B2 (AYUMI PHARMACEUTICAL CORPORATION, priority 2017, dated 2021).

Regarding `Cc1sc2c(c1C)C(c1ccc(Cl)cc1)=NN(Cc1ccccn1)c1nnc(C)n1-2` [Example 5, 4-(4-chlorophenyl)-2,3,9-trimethyl-6-(pyridin-2-ylmethyl)-6H-thieno[2,3-e][1,2,4]triazolo[3,4-c][1,2,4]triazepine], in data set [1], the “Limb edema suppression rate(%)” value is 92.9%.
The same measure, in the same setting: the same measure for `Cc1sc2c(c1C)C(c1ccc(Cl)cc1)=NN(Cc1cccnc1F)c1nnc(C)n1-2` [Example 25, 4-(4-chlorophenyl)-6-((2-fluoropyridin-3-yl)methyl)-2,3,9-trimethyl-6H-thieno[2,3-e][1,2,4]triazolo[3,4-c][1,2,4]triazepine]: 39.8%.
With `Cc1sc2c(c1C)C(c1ccccc1)=NN(Cc1ccccn1)c1nnc(C)n1-2` [Example 31, 2,3,9-trimethyl-4-phenyl-6-(pyridin-2-ylmethyl)-6H-thieno[2,3-e][1,2,4]triazolo[3,4-c][1,2,4]triazepine], the “Limb edema suppression rate(%)” value in data set [1] amounted to 68.9%.
With `Cc1sc2c(c1C)C(c1ccc(Cl)cc1)=NN(Cc1cccnc1Cl)c1nnc(C)n1-2` [Example 38, 4-(4-chlorophenyl)-6-((2-chloropyridin-3-yl)methyl)-2,3,9-trimethyl-6H-thieno[2,3-e][1,2,4]triazolo[3,4-c][1,2,4]triazepine], the “Limb edema suppression rate(%)” value in data set [1] was found to be 11.9%.
`CC(=O)Nc1ccc(C2=NN(Cc3cccnc3)c3nnc(C)n3-c3sc(C)c(C)c32)cc1` [Example 71, N-(4-(2,3,9-trimethyl-6-(pyridin-3-ylmethyl)-6H-thieno[2,3-e][1,2,4]triazolo[3,4-c][1,2,4]triazepin-4-yl)phenyl)acetamide]: the “Limb edema suppression rate(%)” value in data set [1] was determined as 93.8%. Moreover, the concentration at 0.5 h in data set [2] (male, LEW/CrlCrlj, rat, 10 mg/kg, plasma, 0.5 h after oral 2 mg/mL solution at 5 mL/kg, mean n = 4, read-out: Concentration (ng/mL), sampling time 0.5 h) came out at 22.1 ng/mL. Besides, the concentration at 1 h in data set [2] (male, LEW/CrlCrlj, rat, 10 mg/kg, plasma, 1 h after oral 2 mg/mL solution at 5 mL/kg, mean n = 4, read-out: Concentration (ng/mL), sampling time 1 h) came out at 14.8 ng/mL. The concentration at 3 h in data set [2] (male, LEW/CrlCrlj, rat, 10 mg/kg, plasma, 3 h after oral 2 mg/mL solution at 5 mL/kg, mean n = 4, read-out: Concentration (ng/mL), sampling time 3 h) was found to be 4.23 ng/mL. Also, the concentration at 6 h in data set [2] (male, LEW/CrlCrlj, rat, 10 mg/kg, plasma, 6 h after oral 2 mg/mL solution at 5 mL/kg, mean n = 4, read-out: Concentration (ng/mL), sampling time 6 h) stood at 1.46 ng/mL. In data set [2] (setting [3]), the total exposure AUC(0-inf) worked out at 61.8 ng·h/mL, the AUC(0-t) was 42.3 ng·h/mL and the half-life was 1.31 h. Also, in data set [2] (male, LEW/CrlCrlj, rat, plasma, 10 mg/kg, oral 2 mg/mL solution at 5 mL/kg, mean n = 4, read-out: Cmax), the Cmax amounted to 22.4 ng/mL. Further, the mean residence time (MRT) in data set [2] (male, LEW/CrlCrlj, rat, plasma, 10 mg/kg, oral 2 mg/mL solution at 5 mL/kg, mean n = 4, read-out: MRT) is 1.82 h. Further, the time of peak concentration (Tmax) in data set [2] (male, LEW/CrlCrlj, rat, plasma, 10 mg/kg, oral 2 mg/mL solution at 5 mL/kg, mean n = 4, read-out: Tmax) was 0.75 h. In addition, the Kel in data set [2] (oral 2 mg/mL solution at 5 mL/kg, mean n = 4) was 0.55 h⁻¹.

The term AUC(0-inf) denotes total exposure, with the tail of the curve extrapolated. A low value points to less exposure. One may read the AUC(0-t) as exposure summed from dosing to a finite time, without extrapolation to infinity. What is called half-life is the time needed for the level to fall by half in the phase considered. A low value points to rapid decline. In general, Cmax refers to the highest concentration seen after dosing. By MRT is commonly meant a mean duration of stay, worked out from the concentration-time curve. By Tmax is commonly meant the time at which the peak concentration occurs.
